In brackets after ≈: the same amount, converted by molar mass.
What follows are compounds tested on Staphylococcus aureus Smith (assay: MIC assay, modified agar dilution (CLSI), S. aureus Smith). Details: Staphylococcus aureus, agar dilution, 35° C., 16-20 hr; lowest concentration that completely inhibited growth; read-out: S_aureus_Smith_WT_MIC.
Type: cell-based
How it was run: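 Agar dilution per CLSI on Mueller Hinton agar (plus 5% horse blood for S. pneumoniae and E. faecium), compound 128 to 0.001 μg/mL in two-fold steps. Spots of ~1×10^4 CFU incubated at 35 °C for 16-20 hr before MIC scoring.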

Row | MIC [µg/mL] | Structure (SMILES)
1 | 2 (≈ 3.98 µM) | N#Cc1cnc2ccc(=O)n(CC(O)C34CCC(NCc5ccc6c(n5)NC(=O)CO6)(CC3)CO4)c2c1 (stereo not shown) [Example 162, 5-(2-Hydroxy-2-(4-((3-oxo-3,4-dihydro-2H-pyrido[3,2-b][1,4]oxazin-6-yl)methylamino)-2-oxabicyclo[2.2.2]octan-1-yl)ethyl)-6-oxo-5,6-dihydro-1,5-naphthyridine-3-carbonitrile]
2 | 4 (≈ 7.55 µM) | COc1ccc2ncc(F)c(CCC34CCC(NCc5ccc6c(n5)NS(=O)(=O)CO6)(CC3)CO4)c2n1 [Example 163, 7-((1-(2-(3-Fluoro-6-methoxy-1,5-naphthyridin-4-yl)ethyl)-2-oxabicyclo[2.2.2]octan-4-ylamino)methyl)-1H-pyrido[2,3-e][1,3,4]oxathiazine-2,2-dioxide]
3 | 2 (≈ 3.62 µM) | NCC(O)COc1ccc2ncc(F)c(CCC34CCC(NCc5ccc6c(n5)NC(=O)CO6)(CC3)CO4)c2n1 (stereo not shown) [Example 165, 6-{[(1-{2-[6-(3-Amino-2-hydroxypropoxy)-3-fluoro-1,5-naphthyridin-4-yl]ethyl}-2-oxabicyclo[2.2.2]oct-4-yl)amino]methyl}-2H-pyrido[3,2-b][1,4]oxazin-3(4H)-one]
4 | 0.5 (≈ 0.842 µM) | O=C1COc2ccc(CNC34CCC(CCc5c(F)cnc6ccc(OC7CC(O)CC(O)C7)nc56)(CC3)OC4)nc2N1 (stereo not shown) [Example 166, 6-({[1-(2-{6-[(3,5-Dihydroxycyclohexyl)oxy]-3-fluoro-1,5-naphthyridin-4-yl}ethyl)-2-oxabicyclo[2.2.2]oct-4-yl]amino}methyl)-2H-pyrido[3,2-b][1,4]oxazin-3(4H)-one]
5 | 2 (≈ 3.61 µM) | COc1ccc2ncc(F)c(CC(OCCO)C34CCC(NCc5ccc6c(n5)NC(=O)CO6)(CC3)CO4)c2n1 (stereo not shown) [Example 167, 6-[({1-[2-(3-Fluoro-6-methoxy-1,5-naphthyridin-4-yl)-1-(2-hydroxyethoxy)ethyl]-2-oxabicyclo[2.2.2]oct-4-yl}amino)methyl]-2H-pyrido[3,2-b][1,4]oxazin-3(4H)-one]
6 | 16 (≈ 29 µM) | COC(=O)N(Cc1ccc2c(n1)NC(=O)CO2)C12CCC(CCc3c(F)cnc4ccc(OC)nc34)(CC1)OC2 [Example 168, Methyl {1-[2-(3-Fluoro-6-methoxy-1,5-naphthyridin-4-yl)ethyl]-2-oxabicyclo[2.2.2]oct-4-yl}[(3-oxo-3,4-dihydro-2H-pyrido[3,2-b][1,4]oxazin-6-yl)methyl]carbamate]
7 | 0.125 (≈ 0.221 µM) | O=C1COc2ccc(CNC34CCC(CCc5c(F)cnc6ccc(OCC7(O)COC7)nc56)(CC3)OC4)nc2N1 [Example 170, 6-((1-(2-(3-Fluoro-6-((3-hydroxyoxetan-3-yl)methoxy)-1,5-naphthyridin-4-yl)ethyl)-2-oxabicyclo[2.2.2]octan-4-ylamino)methyl)-2H-pyrido[3,2-b][1,4]oxazin-3(4H)-one]

Row | Structure (SMILES) | MIC [µg/mL]
8 | N[C@H]1C(=O)N[C@@H]1COc1ccc2ncc(F)c(CCC34CCC(NCc5ccc6c(n5)NC(=O)CO6)(CC3)CO4)c2n1 [Example 164, 6-((1-(2-(6-(((2S,3R)-3-Amino-4-oxoazetidin-2-yl)methoxy)-3-fluoro-1,5-naphthyridin-4-yl)ethyl)-2-oxabicyclo[2.2.2]octan-4-ylamino)methyl)-2H-pyrido[3,2-b][1,4]oxazin-3(4H)-one] | 0.5 (≈ 0.866 µM)
9 | O=C1COc2ccc(CNC34CCC(CCc5c(F)cnc6ccc(OC[C@H]7C[C@@H](O)[C@@H](O)C7)nc56)(CC3)OC4)nc2N1 [Example 169, 6-((1-(2-(6-(((1r,3R,4S)-3,4-Dihydroxycyclopentyl)methoxy)-3-fluoro-1,5-naphthyridin-4-yl)ethyl)-2-oxabicyclo[2.2.2]octan-4-ylamino)methyl)-2H-pyrido[3,2-b][1,4]oxazin-3(4H)-one] | 0.063 (≈ 0.106 µM)
10 | Cl.O=C1COc2ccc(CNC34CCC(C(O)Cc5c(F)cnc6ccc(OCCO)nc56)(CC3)OC4)nc2N1 (stereo not shown) [Example 171, 6-((1-(2-(3-Fluoro-6-(2-hydroxyethoxy)-1,5-naphthyridin-4-yl)-1-hydroxyethyl)-2-oxabicyclo[2.2.2]octan-4-ylamino)methyl)-2H-pyrido[3,2-b][1,4]oxazin-3(4H)-one Hydrochloride] | 0.125
